Reference: patent publication US6410560B1, “Drug for relieving pain and promoting the removal of calculi in urolithiasis” (Kissei Pharmaceutical Co., Ltd., priority 1995, dated 2002)

Test system: human ureteral smooth muscle
Assay: Relaxation of 40 mM KCl-induced contraction of isolated human ureteral smooth muscle strips
Assay type: cell-based
Conditions: for ureteral relaxing effect: 40 mM KCl-induced tonic contraction, 10^−6 M phentolamine present, FIG. 1
Protocol: Measurement of the contractile force of the ureteral smooth muscle strip (1) Preparation of smooth muscle strips Specimens of human ureter were obtained from patients undergoing nephrectomy or total cystectomy. After the specimens were carefully dissected free from the surrounding fat tissues, they were cut into spiral strips. The ureteral strips of about 20 mm in length and 5 mm in width were prepared. (2) Experimental conditions Buffer solution; Locke's-solution No.2: NaCl (154 mM), KCl (5.6 mM), CaCl2 (2.1 mM), NaHCO3 (5.6 mM) and glucose (3.6 mM) Ureteral muscle strips without any spontaneous rhythmic contractions were used. An initial resting tension of about 1.0 g was placed. The actions of drugs against the 40 mM KCl-induced tonic contraction were evaluated in the presence of 10^−6 M phentolamine. […] The evaluation of drugs; The drug-induced relaxation was expressed as a percentage of the maximal relaxing response to 10^−5 M of isoproterenol. The ureteral tension before the treatment is indicated as 100%, and the tension after treatment of 10^−5 M of isoproterenol which produces maximal ureteral relaxation is indicated as 0%. According to the methods described above, the ureteral relaxing effects of the drug were measured using the human ureteral smooth muscle strips. According to the method described above, the interaction between a β-adrenoceptor stimulant and a β-adrenoceptor blocker was evaluated in human ureteral smooth muscle strips using the following drugs.

| Compound | relaxation produced by isoproterenol in the presence of ICI-118,551 (40 mM KCl contraction, pre-treatment with 100 nM ICI-118,551, relative to maximal relaxation by 10^−5 M isoproterenol alone, FIG. 2) | ureteral relaxing effect | blocking of isoproterenol-induced ureteral relaxation (40 mM KCl contraction, ICI-118,551 100 nM pre-treatment, FIG. 2) |
| --- | --- | --- | --- |
| CC(C)NCC(O)c1ccc(O)c(O)c1 (centres unmarked) [isoproterenol] | about 50% | showed a more potent relaxing effect |  |
| CC(C)(C)NCC(O)COc1cccc2[nH]c(=O)[nH]c12.Cl (racemic) [CGP-12,177A, (±)-4-[3-[(1,1-dimethylethyl)amino]-2-hydroxypropoxy]-1,3-dihydro-2H-benzimidazol-2-one hydrochloride] |  | produced apparent ureteral relaxation |  |
| Cc1ccc(OCC(O)C(C)NC(C)C)c2c1CCC2.Cl (racemic) [ICI-118,551, (±)-1-[(2,3-dihydro-7-methyl-1H-inden-4-yl)oxy]-3-[(1-methylethyl)amino]-2-butanol hydrochloride] |  |  | attenuated the isoproterenol-induced ureteral relaxation, but did not completely block |
| CCC(NC(C)C)C(O)c1ccc(O)c2[nH]c(=O)ccc12 (centres unmarked) [procaterol] |  | produced apparent ureteral relaxation |  |
